The values below are quoted from earlier work in patent US8598325B2, “Solid-phase microextraction coatings and methods for their preparation” (priority 2002, dated 2013).

Molecules are shown by their SMILES. Read-outs that look alike come from different tables or passages of the source.

Experiment in series [1]: not given
This is another data set of the same source.

The conditions of series [2]: at 25° C.

On to `CC(C)(C)C(O)C(Oc1ccc(Cl)cc1)n1cncn1` (centres unmarked) [Triadimenol, triadimenol], for which the LogP (pH 7) is given as 3.18.

Regarding `CCCC(Cn1cncn1)c1ccc(Cl)cc1Cl` (centres unmarked) [Penconazole, penconazole], the LogP (pH 7) is reported as 3.72. For the same molecule, the Sol. in water in series [1] is on record as 73 mg/L. Moreover, in series [2], the “Vapour Pressure” value is 0.366 mPa.

Regarding `CCCCC(O)(Cn1cncn1)c1ccc(Cl)cc1Cl` (centres unmarked) [Hexaconazole, hexaconazole], the LogP (pH 7) was 3.9.

As for `CC(C)(C)C(=O)C(Oc1ccc(Cl)cc1)n1cncn1` (centres unmarked) [Triadimefon, triadimefon], for the setting “at pH 7, 20° C.”, the LogP is 3.18. Also, the Sol. in water in series [1] is 70 mg/L. The “Vapour Pressure” value in series [2] was 0.02 mPa.

By LogP is commonly meant a log measure of how a compound divides between an organic and an aqueous phase.
